According to PMC13267291, “In vivo functional profiling and structural characterization of the human GLP1R A316T variant” (Science Advances, 2026):

System: hGLP1R^A316T-SmBiT versus hGLP1R^WT-SmBiT
Assay: β-arrestin 2 recruitment by NanoBiT complementation
Format: cell-based, rat
Experimental: For mini-Gs recruitment, INS-1 832/3 Glp1r^−/− cells were seeded in 6-cm dishes and transiently cotransfected with 1.7 μg each of hGLP1R^WT or ^A316T-SmBiT and LgBiT-mini-Gs constructs for 24 hours. Cells were then detached, resuspended in Hanks’ balanced salt solution (HBSS) containing NanoGlo Live Cell Reagent (1:20; Promega) with furimazine, and seeded onto white 96-well half-area plates. Baseline luminescence was immediately recorded over 8 min at 37°C in a Flexstation 3 plate reader (Molecular Devices) and for a further 30 min after GLP-1RA addition at serial doses up to 100 nM. Readings were taken every 30 s and normalized to average well baseline, and average vehicle-induced signal was subtracted to establish the agonist-induced effect. To measure β-arrestin 2 recruitment, cells were processed as above with slight modifications: INS-1 832/3 Glp1r^−/− cells were cotransfected with 1.77 μg each of hGLP1R^WT or ^A316T-SmBiT and LgBiT–β-arrestin 2 plasmids for 24 hours, and GLP-1RAs were added at serial doses up to 1 μM. AUCs were calculated for each agonist concentration and fitted to log(agonist) versus response four-parameter curves using GraphPad Prism 10.1.2, with errors propagated for mini-Gs over β-arrestin 2 recruitment bias calculations.

Agonist-induced recruitment of β-arrestin 2, A316T versus WT, log(Emax/EC50) (serial doses up to 1 μM, n = 5, Fig. 7M): near-significant reduction
Substance: exendin-F1
β-arrestin 2 over Gαs signaling bias, A316T versus WT (Δlog(Emax/EC50) βarr2 − mini-Gs, Fig. 7N): significant shift toward Gαs recruitment
